Assays:
Details in all cases: Compound concentration 1000.0 nM
[1] = tested on: Tyrosine-protein kinase ABL1 (Homo sapiens), P00519 [Y253F]
[2] = target: T1, Mitogen-activated protein kinase kinase kinase 5 (Homo sapiens) (UniProt Q99683)
T1 sequence (whole entry): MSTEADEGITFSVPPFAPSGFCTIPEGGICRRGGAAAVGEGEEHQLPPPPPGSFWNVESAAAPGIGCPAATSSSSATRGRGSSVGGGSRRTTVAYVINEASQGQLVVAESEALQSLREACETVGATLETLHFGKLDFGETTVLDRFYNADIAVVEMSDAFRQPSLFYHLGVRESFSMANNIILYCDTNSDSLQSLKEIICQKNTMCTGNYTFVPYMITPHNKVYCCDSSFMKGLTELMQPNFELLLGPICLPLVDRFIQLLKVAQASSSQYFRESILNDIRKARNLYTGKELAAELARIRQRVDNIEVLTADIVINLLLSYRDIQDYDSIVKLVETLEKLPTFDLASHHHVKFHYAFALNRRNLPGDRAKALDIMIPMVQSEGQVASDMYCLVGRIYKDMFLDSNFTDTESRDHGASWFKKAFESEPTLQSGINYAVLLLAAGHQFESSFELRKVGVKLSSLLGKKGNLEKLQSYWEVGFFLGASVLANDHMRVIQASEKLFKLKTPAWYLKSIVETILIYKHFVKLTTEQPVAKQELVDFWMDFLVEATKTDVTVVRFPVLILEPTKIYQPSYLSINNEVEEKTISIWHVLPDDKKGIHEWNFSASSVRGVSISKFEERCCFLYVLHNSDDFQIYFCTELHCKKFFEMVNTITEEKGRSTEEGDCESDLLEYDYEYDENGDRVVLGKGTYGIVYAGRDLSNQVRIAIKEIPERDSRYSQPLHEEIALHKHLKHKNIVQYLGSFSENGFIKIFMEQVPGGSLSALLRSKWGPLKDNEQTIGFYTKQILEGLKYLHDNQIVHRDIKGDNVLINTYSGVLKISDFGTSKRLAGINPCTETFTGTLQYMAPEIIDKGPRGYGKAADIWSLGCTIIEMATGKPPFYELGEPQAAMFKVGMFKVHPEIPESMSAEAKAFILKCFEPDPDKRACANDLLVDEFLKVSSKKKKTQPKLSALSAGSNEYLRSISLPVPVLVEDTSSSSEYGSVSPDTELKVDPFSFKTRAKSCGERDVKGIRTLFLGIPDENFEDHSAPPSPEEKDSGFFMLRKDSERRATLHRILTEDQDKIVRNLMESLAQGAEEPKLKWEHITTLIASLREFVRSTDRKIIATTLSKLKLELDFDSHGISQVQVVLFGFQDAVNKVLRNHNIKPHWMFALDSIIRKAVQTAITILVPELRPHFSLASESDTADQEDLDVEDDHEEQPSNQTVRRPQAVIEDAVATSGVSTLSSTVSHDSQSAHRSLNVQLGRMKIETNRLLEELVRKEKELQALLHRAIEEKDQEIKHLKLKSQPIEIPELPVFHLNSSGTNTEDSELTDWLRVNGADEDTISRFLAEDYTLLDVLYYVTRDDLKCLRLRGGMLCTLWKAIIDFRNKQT

[3] = target: Calcium/calmodulin-dependent protein kinase type 1B (Homo sapiens) (UniProt Q6P2M8)
[4] = target: Cyclin-dependent kinase 7 (Homo sapiens) (UniProt P50613)
[5] = target: Epithelial discoidin domain-containing receptor 1 (Homo sapiens) (UniProt Q08345)
[6] = tested on: Epidermal growth factor receptor (Homo sapiens), P00533 [T790M]
[7] = target: T2, Ephrin type-B receptor 3 (Homo sapiens) (UniProt P54753)
T2 sequence (whole entry): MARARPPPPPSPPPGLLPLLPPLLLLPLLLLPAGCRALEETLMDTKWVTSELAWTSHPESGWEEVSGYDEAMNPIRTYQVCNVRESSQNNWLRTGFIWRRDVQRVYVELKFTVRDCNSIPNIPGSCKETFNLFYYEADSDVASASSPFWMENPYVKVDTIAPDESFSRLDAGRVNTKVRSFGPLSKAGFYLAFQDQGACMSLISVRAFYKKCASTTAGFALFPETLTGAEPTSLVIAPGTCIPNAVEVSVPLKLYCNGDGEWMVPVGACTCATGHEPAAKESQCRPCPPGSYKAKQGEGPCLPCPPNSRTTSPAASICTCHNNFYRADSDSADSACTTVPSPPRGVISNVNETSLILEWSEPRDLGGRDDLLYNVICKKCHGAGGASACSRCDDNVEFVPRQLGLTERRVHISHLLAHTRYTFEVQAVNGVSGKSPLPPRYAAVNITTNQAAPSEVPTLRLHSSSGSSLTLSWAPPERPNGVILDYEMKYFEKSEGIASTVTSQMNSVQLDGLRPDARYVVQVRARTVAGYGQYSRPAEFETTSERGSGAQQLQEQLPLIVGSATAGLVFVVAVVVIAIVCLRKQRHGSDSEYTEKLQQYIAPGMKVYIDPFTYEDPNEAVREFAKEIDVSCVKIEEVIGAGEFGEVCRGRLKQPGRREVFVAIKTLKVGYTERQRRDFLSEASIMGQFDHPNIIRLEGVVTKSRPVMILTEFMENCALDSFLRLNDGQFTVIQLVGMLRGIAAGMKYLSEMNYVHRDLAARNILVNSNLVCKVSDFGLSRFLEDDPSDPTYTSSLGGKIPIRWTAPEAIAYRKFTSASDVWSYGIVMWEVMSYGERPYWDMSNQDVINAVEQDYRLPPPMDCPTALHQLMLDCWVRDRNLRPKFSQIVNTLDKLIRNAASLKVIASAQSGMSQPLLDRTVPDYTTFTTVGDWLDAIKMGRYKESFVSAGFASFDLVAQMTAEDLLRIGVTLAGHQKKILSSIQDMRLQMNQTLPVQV

[8] = target: Dual specificity mitogen-activated protein kinase kinase 5 (Homo sapiens) (UniProt Q13163)
[9] = target: Serine/threonine-protein kinase PknB (Mycobacterium tuberculosis) (UniProt P9WI81)
[10] = target: Protein kinase C theta type (Homo sapiens) (UniProt Q04759)
[11] = tested on: Proto-oncogene tyrosine-protein kinase receptor Ret (Homo sapiens), P07949 [V804L]
[12] = target: Serine/threonine-protein kinase WNK3 (Homo sapiens) (UniProt Q9BYP7)
[13] = target: Serine/threonine-protein kinase WNK4 (Homo sapiens) (UniProt Q96J92)

Measured: residual activity

Sequence of Epithelial discoidin domain-containing receptor 1 (Homo sapiens) (Q08345 whole entry, the tested form may be a part): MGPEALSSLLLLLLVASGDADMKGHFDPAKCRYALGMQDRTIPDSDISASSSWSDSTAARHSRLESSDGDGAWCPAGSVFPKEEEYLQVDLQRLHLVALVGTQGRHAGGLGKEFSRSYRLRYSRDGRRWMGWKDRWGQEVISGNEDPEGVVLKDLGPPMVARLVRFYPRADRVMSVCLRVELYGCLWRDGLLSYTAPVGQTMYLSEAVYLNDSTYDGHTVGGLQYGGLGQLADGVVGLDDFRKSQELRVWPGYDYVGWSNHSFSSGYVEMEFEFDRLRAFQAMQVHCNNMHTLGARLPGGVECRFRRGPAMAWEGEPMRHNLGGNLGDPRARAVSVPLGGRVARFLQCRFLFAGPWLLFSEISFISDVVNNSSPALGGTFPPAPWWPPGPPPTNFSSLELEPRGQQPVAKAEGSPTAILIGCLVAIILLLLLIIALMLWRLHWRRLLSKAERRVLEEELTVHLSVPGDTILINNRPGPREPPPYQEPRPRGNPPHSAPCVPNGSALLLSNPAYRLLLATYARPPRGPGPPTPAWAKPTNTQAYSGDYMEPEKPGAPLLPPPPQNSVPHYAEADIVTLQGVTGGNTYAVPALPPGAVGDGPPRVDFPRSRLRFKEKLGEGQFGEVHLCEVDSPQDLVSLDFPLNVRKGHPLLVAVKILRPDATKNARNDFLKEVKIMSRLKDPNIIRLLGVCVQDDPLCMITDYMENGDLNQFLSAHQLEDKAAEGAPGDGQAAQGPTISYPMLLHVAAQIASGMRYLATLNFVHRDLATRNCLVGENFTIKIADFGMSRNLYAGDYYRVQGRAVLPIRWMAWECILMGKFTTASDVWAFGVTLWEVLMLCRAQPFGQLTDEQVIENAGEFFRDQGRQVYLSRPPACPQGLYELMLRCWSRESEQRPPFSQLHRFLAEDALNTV
Sequence of Proto-oncogene tyrosine-protein kinase receptor Ret (Homo sapiens), P07949 [V804L] (P07949 whole entry V804L): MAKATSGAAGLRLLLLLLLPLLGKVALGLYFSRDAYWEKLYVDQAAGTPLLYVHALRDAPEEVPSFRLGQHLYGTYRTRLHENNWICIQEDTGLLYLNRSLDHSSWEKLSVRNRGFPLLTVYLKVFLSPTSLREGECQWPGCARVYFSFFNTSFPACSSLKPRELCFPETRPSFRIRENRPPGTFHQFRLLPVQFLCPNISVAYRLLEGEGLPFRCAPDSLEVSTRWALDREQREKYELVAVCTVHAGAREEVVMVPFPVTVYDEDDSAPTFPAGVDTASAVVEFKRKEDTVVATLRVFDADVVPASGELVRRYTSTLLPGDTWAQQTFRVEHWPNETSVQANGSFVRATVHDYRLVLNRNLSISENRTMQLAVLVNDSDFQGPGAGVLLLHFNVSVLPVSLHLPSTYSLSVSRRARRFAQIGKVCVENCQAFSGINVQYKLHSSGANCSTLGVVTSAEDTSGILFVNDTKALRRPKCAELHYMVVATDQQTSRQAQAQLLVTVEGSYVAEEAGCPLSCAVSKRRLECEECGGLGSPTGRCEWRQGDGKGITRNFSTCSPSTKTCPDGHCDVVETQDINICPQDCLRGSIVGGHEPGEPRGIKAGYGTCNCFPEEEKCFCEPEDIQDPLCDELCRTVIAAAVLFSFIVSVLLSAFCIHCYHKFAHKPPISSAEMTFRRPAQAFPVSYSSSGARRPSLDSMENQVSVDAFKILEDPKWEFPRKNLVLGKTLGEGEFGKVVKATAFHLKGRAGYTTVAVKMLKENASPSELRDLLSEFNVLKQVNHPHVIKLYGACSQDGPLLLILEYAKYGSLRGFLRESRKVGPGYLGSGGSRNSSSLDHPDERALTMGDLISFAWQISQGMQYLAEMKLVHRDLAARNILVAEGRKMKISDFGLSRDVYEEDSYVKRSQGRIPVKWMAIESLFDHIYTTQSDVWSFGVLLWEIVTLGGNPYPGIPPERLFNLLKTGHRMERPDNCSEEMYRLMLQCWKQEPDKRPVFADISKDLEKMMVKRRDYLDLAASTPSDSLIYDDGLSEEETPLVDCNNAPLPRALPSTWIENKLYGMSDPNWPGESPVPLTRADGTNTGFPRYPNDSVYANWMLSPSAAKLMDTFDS
Sequence of Dual specificity mitogen-activated protein kinase kinase 5 (Homo sapiens) (Q13163 whole entry): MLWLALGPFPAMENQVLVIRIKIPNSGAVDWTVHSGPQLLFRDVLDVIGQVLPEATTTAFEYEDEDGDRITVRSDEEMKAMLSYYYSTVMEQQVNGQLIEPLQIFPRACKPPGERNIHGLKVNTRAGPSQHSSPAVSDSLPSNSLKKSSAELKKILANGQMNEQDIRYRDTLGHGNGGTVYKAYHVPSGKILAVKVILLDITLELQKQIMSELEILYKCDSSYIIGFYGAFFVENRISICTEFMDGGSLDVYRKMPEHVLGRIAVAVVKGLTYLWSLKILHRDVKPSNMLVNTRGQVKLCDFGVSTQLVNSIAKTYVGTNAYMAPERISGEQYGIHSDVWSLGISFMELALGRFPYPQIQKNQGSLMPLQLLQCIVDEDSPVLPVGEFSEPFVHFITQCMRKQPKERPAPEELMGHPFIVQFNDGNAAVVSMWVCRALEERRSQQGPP
Sequence of Serine/threonine-protein kinase WNK3 (Homo sapiens) (Q9BYP7 whole entry): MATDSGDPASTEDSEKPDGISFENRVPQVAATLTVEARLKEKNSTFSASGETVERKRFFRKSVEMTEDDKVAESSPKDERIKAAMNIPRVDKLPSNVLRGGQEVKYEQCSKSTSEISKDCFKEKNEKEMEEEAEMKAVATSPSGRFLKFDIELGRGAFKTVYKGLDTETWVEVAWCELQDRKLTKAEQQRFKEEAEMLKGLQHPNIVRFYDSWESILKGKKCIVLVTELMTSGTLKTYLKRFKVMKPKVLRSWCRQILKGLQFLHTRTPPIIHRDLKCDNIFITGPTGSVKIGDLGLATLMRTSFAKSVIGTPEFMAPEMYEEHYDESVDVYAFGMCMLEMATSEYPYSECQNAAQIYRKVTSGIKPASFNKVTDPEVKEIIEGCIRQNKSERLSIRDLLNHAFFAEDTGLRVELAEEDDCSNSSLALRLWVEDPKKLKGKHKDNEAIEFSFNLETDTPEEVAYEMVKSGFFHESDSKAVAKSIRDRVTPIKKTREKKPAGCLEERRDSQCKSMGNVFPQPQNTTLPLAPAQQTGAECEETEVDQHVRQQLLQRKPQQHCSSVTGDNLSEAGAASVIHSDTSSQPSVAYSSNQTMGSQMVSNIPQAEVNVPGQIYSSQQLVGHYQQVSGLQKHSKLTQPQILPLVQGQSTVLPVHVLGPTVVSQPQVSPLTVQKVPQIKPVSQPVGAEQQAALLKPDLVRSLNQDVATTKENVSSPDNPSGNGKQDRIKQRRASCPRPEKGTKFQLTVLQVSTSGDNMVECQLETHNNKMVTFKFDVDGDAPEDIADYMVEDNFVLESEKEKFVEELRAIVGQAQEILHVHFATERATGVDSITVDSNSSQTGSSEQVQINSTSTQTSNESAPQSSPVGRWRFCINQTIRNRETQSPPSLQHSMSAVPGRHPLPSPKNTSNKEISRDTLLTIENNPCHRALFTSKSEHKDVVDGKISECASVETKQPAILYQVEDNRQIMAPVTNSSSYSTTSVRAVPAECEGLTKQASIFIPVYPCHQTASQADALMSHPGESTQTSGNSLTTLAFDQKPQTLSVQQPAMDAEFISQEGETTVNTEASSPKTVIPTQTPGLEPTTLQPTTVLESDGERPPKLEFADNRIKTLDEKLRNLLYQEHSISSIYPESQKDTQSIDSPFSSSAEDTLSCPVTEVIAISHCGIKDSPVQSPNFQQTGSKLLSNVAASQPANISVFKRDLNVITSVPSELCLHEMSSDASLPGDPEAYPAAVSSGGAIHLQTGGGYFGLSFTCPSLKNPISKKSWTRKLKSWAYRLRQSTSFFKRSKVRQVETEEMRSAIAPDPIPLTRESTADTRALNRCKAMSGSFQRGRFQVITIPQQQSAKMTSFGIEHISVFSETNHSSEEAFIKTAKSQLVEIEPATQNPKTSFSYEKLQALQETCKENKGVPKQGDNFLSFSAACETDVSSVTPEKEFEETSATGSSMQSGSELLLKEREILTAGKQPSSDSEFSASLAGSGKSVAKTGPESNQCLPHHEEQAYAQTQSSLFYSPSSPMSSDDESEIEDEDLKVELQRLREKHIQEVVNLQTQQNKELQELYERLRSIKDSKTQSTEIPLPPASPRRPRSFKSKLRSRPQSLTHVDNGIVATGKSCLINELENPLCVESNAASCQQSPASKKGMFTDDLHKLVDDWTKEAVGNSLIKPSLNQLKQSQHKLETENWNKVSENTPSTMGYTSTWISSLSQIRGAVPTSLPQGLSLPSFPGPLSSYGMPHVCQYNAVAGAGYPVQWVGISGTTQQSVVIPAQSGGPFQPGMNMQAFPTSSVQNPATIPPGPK
Sequence of Cyclin-dependent kinase 7 (Homo sapiens) (P50613 whole entry, the tested form may be a part): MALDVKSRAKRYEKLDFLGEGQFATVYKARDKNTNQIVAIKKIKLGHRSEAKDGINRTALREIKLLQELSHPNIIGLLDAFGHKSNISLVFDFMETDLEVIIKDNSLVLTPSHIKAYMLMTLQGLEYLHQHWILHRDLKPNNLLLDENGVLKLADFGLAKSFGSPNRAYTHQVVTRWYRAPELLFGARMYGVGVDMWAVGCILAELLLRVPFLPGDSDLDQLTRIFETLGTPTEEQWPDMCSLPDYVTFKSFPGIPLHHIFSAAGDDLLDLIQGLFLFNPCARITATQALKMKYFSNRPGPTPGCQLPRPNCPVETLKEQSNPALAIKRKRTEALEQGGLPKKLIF
Sequence of Calcium/calmodulin-dependent protein kinase type 1B (Homo sapiens) (Q6P2M8 whole entry): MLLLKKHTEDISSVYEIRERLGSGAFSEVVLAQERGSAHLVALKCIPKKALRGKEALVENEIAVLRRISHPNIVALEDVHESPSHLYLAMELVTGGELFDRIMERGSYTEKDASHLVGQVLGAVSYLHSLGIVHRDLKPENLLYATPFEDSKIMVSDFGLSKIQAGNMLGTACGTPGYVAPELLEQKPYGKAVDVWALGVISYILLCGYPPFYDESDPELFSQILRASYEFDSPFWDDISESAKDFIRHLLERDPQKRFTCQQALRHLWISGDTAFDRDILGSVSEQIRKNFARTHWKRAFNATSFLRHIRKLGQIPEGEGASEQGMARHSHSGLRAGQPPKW

Cc1nc(C2CCN(C(=O)c3ccc(OC(F)(F)F)cc3N)CC2)c2ncc(N3CCN(C)CC3)cc2n1 [BAY-693]
inactive: [1] 98% | [2] 99% | [3] 100% | [4] 100% | [5] 100% | [6] 100% | [7] 100% | [8] 83% | [9] 100% | [10] 93% | [11] 73% | [12] 94% | [13] 100%

CN1CCN(c2cnc3c(C4CCN(C(=O)c5ccc(OC(F)(F)F)cc5N)CC4)ncnc3c2)CC1 [BAY-885]
inactive: [1] 100% | [2] 92% | [3] 100% | [4] 89% | [5] 100% | [6] 84% | [7] 100% | [8] 86% | [9] 97% | [10] 91% | [11] 97% | [12] 100% | [13] 99%
